These results are taken from patent publication US20250115591A1, “NOVEL SULFONAMIDE CARBOXAMIDE COMPOUNDS” (INFLAZOME LIMITED, priority 2017, published 2025).

Counter-ions that a name gives are not always drawn.

Usually IC50 stands for the point on the concentration scale where inhibition reaches its midpoint.

Chain of NLRP3 (Q96P20 whole entry): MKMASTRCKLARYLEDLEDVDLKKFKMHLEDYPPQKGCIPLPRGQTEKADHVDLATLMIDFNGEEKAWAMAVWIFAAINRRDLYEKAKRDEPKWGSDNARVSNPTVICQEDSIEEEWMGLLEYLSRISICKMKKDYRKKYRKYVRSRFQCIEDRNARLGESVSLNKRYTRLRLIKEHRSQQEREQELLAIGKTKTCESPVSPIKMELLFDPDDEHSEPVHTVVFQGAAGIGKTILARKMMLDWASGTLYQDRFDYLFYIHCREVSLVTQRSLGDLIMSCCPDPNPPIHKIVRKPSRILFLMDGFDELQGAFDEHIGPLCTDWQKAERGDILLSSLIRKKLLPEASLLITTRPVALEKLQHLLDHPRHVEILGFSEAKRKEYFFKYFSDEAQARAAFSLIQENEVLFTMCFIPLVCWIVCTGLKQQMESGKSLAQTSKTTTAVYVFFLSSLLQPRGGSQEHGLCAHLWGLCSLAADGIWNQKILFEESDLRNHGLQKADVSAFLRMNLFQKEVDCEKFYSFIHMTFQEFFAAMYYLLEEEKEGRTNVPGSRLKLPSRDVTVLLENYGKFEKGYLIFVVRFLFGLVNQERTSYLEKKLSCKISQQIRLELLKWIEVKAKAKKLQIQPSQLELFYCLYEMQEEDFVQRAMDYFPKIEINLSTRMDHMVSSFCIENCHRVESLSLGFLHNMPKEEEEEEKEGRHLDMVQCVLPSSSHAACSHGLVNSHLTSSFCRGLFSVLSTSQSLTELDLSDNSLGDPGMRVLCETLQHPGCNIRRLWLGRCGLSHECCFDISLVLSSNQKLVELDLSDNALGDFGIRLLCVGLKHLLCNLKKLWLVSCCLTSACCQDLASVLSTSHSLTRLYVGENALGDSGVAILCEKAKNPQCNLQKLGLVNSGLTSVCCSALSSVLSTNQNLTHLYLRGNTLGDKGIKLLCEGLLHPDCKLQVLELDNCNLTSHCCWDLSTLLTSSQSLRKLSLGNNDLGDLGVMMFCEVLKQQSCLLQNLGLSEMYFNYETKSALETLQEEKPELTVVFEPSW

For the test, the target named is NLRP3 (Homo sapiens (Human), UniProt Q96P20). Briefly: THP-1 cells pyroptosis assay (LPS + nigericin, resazurin read-out). In kind it is cell-based. The note with it: 1 μg/ml LPS, 5 μM nigericin. Here is the method:
THP-1 cells (ATCC #TIB-202) were grown in RPMI containing L-glutamine (Gibco 15 #11835) supplemented with 1 mM sodium pyruvate (Sigma #S8636) and penicillin (100 units/ml)/streptomycin (0.1 mg/ml) (Sigma #P4333) in 10% Fetal Bovine Serum (FBS) (Sigma #F0804). The cells were routinely passaged and grown to confluency (˜10^6 cells/ml). On the day of the experiment, THP-1 cells were harvested and resuspended into RPMI medium (without FBS). The cells were then counted and viability (>90%) checked by Trypan blue (Sigma #T8154). Appropriate dilutions were made to give a concentration of 625,000 cells/ml. To this diluted cell solution was added LPS (Sigma #[4524) to give a 1 μg/ml Final Assay Concentration (FAC). 40μ of the final preparation was aliquoted into each well of a 96-well plate. The plate thus prepared was used for compound screening.
The following method step-by-step assay was followed for compound screening. • 1. Seed THP-1 cells (25,000 cells/well) containing 1.0 μg/ml LPS in 40μ of RPMI medium (without FBS) in 96-well, black walled, clear bottom cell culture plates coated with poly-D-lysine (VWR #734-0317) • 2. Add 5 μl compound (8 points half-log dilution, with […]) or vehicle (DMSO 0.1% FAC) to the appropriate wells • 3. Incubate for 3 hrs at 37° C. and 5% CO2 • 4. Add 5 μl nigericin (Sigma #N7143) (FAC 5 μM) to all wells • 5. Incubate for 1 hr at 37° C. and 5% CO2 • 6. At the end of the incubation period, spin plates at 300×g for 3 mins and remove supernatant • 7. Then add 50 μl of resazurin (Sigma #R7017) (FAC 100 μM resazurin in RPMI medium without FBS) and incubate plates for a further 1-2 hrs at 37° C. and 5% CO2 • 8. Plates were read in an Envision reader at Ex 560 nm and Em 590 nm • 9. IC50 data is fitted to a non-linear regression equation (log inhibitor vs response-variable slope 4-parameters)
A general note: The colour change of resazurin is a common sign of viable cells or microbes.
Consider `CN1CC2(CC(S(=O)(=O)NC(=O)Nc3c4c(cc5c3CCC5)CCC4)C2)C1` [Example 64, N-((1,2,3,5,6,7-Hexahydro-s-indacen-4-yl)carbamoyl)-2-methyl-2-azaspiro[3.3]heptane-6-sulfonamide, potassium salt], for which the IC50 is 1 to 10 µM.
Regarding `CCN1CC(S(=O)(=O)NC(=O)Nc2c3c(cc4c2CCC4)CCC3)Cc2ccccc21` (stereo not drawn) [Example 66, 1-Ethyl-N-((1,2,3,5,6,7-hexahydro-s-indacen-4-yl)carbamoyl)-1,2,3,4-tetrahydroquinoline-3-sulfonamide, potassium salt], the IC50 is less than 1 µM.
With `O=C(Nc1c2c(cc3c1CCC3)CCC2)NS(=O)(=O)C1CCN(CC(F)(F)F)CC1` [Example 67, N-((1,2,3,5,6,7-Hexahydro-s-indacen-4-yl)carbamoyl)-1-(2,2,2-trifluoroethyl)piperidine-4-sulfonamide, potassium salt] the figure was 1 to 10 µM; with `CC(C)N1CCC(S(=O)(=O)NC(=O)Nc2c3c(cc4c2CCC4)CCC3)C1=O` (stereo not drawn) [Example 68, N-((1,2,3,5,6,7-Hexahydro-s-indacen-4-yl)carbamoyl)-1-isopropyl-2-oxopyrrolidine-3-sulfonamide, potassium salt], less than 1 µM.
In the case of `CCN1CCC(N2CC(S(=O)(=O)NC(=O)Nc3c4c(cc5c3CCC5)CCC4)C2)CC1` [Example 73, 1-(1-Ethylpiperidin-4-yl)-N-((1,2,3,5,6,7-hexahydro-s-indacen-4-yl)carbamoyl)azetidine-3-sulfonamide, potassium salt], the IC50 lay in the range of 1 to 10 µM.
Next, `CC(C)(C)OC(=O)N1CC(S(=O)(=O)NC(=O)Nc2c3c(cc4c2CCC4)CCC3)C1` [Example 77, tert-Butyl 3-(N-((1,2,3,5,6,7-hexahydro-s-indacen-4-yl)carbamoyl)sulfamoyl)azetidine-1-carboxylate, potassium salt]: 1 to 10 µM; `CC(=O)N1CC(N2CCC(S(=O)(=O)NC(=O)Nc3c4c(cc5c3CCC5)CCC4)CC2)C1` [Example 79, 1-(1-Acetylazetidin-3-yl)-N-((1,2,3,5,6,7-hexahydro-s-indacen-4-yl)carbamoyl)piperidine-4-sulfonamide, potassium salt]: 1 to 10 µM.
With `CN1CC(N2CCC(S(=O)(=O)NC(=O)Nc3c4c(cc5c3CCC5)CCC4)CC2)C1` [Example 80, N-((1,2,3,5,6,7-Hexahydro-s-indacen-4-yl)carbamoyl)-1-(1-methylazetidin-3-yl)piperidine-4-sulfonamide, potassium salt] the figure was 1 to 10 µM; with `CCC(CC)N1CCC(S(=O)(=O)NC(=O)Nc2c3c(cc4c2CCC4)CCC3)C1` (stereo not drawn) [Example 81, N-((1,2,3,5,6,7-Hexahydro-s-indacen-4-yl)carbamoyl)-1-(pentan-3-yl)pyrrolidine-3-sulfonamide, potassium salt], 1 to 10 µM; with `CC(C)(O)CN1CC(S(=O)(=O)NC(=O)Nc2c3c(cc4c2CCC4)CCC3)C1` [Example 84, N-((1,2,3,5,6,7-Hexahydro-s-indacen-4-yl)carbamoyl)-1-(2-hydroxy-2-methylpropyl)azetidine-3-sulfonamide, potassium salt], less than 1 µM.
With `O=C(Nc1c2c(cc3c1CCC3)CCC2)NS(=O)(=O)C1CN(C(CF)CF)C1` [Example 86, 1-(1,3-Difluoropropan-2-yl)-N-((1,2,3,5,6,7-hexahydro-s-indacen-4-yl)carbamoyl)azetidine-3-sulfonamide, potassium salt] the figure was 1 to 10 µM; with `COCCN1CC(S(=O)(=O)NC(=O)Nc2c3c(cc4c2CCC4)CCC3)C1` [Example 88, N-((1,2,3,5,6,7-Hexahydro-s-indacen-4-yl)carbamoyl)-1-(2-methoxyethyl)azetidine-3-sulfonamide, potassium salt], less than 1 µM; with `O=C(Nc1c2c(cc3c1CCC3)CCC2)NS(=O)(=O)C1CN(CC2CCCCC2)C1` [Example 89, 1-(Cyclohexylmethyl)-N-((1,2,3,5,6,7-hexahydro-s-indacen-4-yl)carbamoyl)azetidine-3-sulfonamide, potassium salt], 1 to 10 µM.
Consider `CC(=N)N1CC(S(=O)(=O)NC(=O)Nc2c3c(cc4c2CCC4)CCC3)C1` [Example 100, N-((1,2,3,5,6,7-Hexahydro-s-indacen-4-yl)carbamoyl)-1-(1-iminoethyl)azetidine-3-sulfonamide, potassium salt], for which the IC50 lay in the range of 1 to 10 µM.
Next, `CN(C)CCN1CC(S(=O)(=O)NC(=O)Nc2c3c(cc4c2CCC4)CCC3)C1` [Example 102, 1-(2-(Dimethylamino)ethyl)-N-((1,2,3,5,6,7-hexahydro-s-indacen-4-yl)carbamoyl)azetidine-3-sulfonamide, potassium salt]: 1 to 10 µM; `O=C(Nc1c2c(cc3c1CCC3)CCC2)NS(=O)(=O)C1CN(Cc2ccccn2)C1` [Example 104, N-((1,2,3,5,6,7-Hexahydro-s-indacen-4-yl)carbamoyl)-1-(pyridin-2-ylmethyl)azetidine-3-sulfonamide, potassium salt]: less than 1 µM.
With `CSCCN1CC(S(=O)(=O)NC(=O)Nc2c3c(cc4c2CCC4)CCC3)C1` [Example 107, N-((1,2,3,5,6,7-Hexahydro-s-indacen-4-yl)carbamoyl)-1-(2-(methylthio)ethyl)azetidine-3-sulfonamide, potassium salt] the figure was less than 1 µM; with `CN1CC(N2CC(S(=O)(=O)NC(=O)Nc3c4c(cc5c3CCC5)CCC4)C2)C1` [Example 110, N-((1,2,3,5,6,7-Hexahydro-s-indacen-4-yl)carbamoyl)-1′-methyl-[1,3′-biazetidine]-3-sulfonamide, potassium salt], 1 to 10 µM.
Next, `C#CCCC1(CCN2CC(S(=O)(=O)NC(=O)Nc3c4c(cc5c3CCC5)CCC4)C2)N=N1` [Example 111, 1-(2-(3-(But-3-yn-1-yl)-3H-diazirin-3-yl)ethyl)-N-((1,2,3,5,6,7-hexahydro-s-indacen-4-yl)carbamoyl)azetidine-3-sulfonamide, potassium salt]: 1 to 10 µM.
As to `O=C(Nc1c2c(cc3c1CCC3)CCC2)NS(=O)(=O)C1CN(C2COC2)C1` [Example 116, N-((1,2,3,5,6,7-Hexahydro-s-indacen-4-yl)carbamoyl)-1-(oxetan-3-yl)azetidine-3-sulfonamide, potassium salt], the IC50 lay in the range of 1 to 10 µM.
With `O=C(Nc1c2c(cc3c1CCC3)CCC2)NS(=O)(=O)C1CN(C2C[S+]([O-])C2)C1` (stereo not drawn) [Example 117, N-((1,2,3,5,6,7-Hexahydro-s-indacen-4-yl)carbamoyl)-1-(1-oxidothietan-3-yl)azetidine-3-sulfonamide, potassium salt] the figure was less than 1 µM; with `CC1CC(N2CC(S(=O)(=O)NC(=O)Nc3c4c(cc5c3CCC5)CCC4)C2)C1` (stereo not drawn) [Example 118, N-((1,2,3,5,6,7-Hexahydro-s-indacen-4-yl)carbamoyl)-1-(3-methylcyclobutyl)azetidine-3-sulfonamide, potassium salt], less than 1 µM; with `CC1(C)CC(N2CC(S(=O)(=O)NC(=O)Nc3c4c(cc5c3CCC5)CCC4)C2)C1` [Example 119, 1-(3,3-Dimethylcyclobutyl)-N-((1,2,3,5,6,7-hexahydro-s-indacen-4-yl)carbamoyl)azetidine-3-sulfonamide, potassium salt], 1 to 10 µM.
With `O=C(Nc1c2c(cc3c1CCC3)CCC2)NS(=O)(=O)C1CN(C2CS(=O)(=O)C2)C1` [Example 120, 1-(1,1-Dioxidothietan-3-yl)-N-((1,2,3,5,6,7-hexahydro-s-indacen-4-yl)carbamoyl)azetidine-3-sulfonamide, potassium salt] the figure was 1 to 10 µM; with `Cn1ccnc1CN1CC(S(=O)(=O)NC(=O)Nc2c3c(cc4c2CCC4)CCC3)C1` [Example 123, N-((1,2,3,5,6,7-Hexahydro-s-indacen-4-yl)carbamoyl)-1-((1-methyl-1H-imidazol-2-yl)methyl)azetidine-3-sulfonamide, potassium salt], 1 to 10 µM.
As for `C/C(CN1CC(S(=O)(=O)NC(=O)Nc2c3c(cc4c2CCC4)CCC3)C1)=N/O` [Example 128, N-((1,2,3,5,6,7-Hexahydro-s-indacen-4-yl)carbamoyl)-1-(2-(hydroxyimino)propyl)azetidine-3-sulfonamide, potassium salt], the IC50 was in the range of 1 to 10 µM.
With `C[Si](C)(C)CN1CC(S(=O)(=O)NC(=O)Nc2c3c(cc4c2CCC4)CCC3)C1` [Example 136, N-((1,2,3,5,6,7-Hexahydro-s-indacen-4-yl)carbamoyl)-1-((trimethylsilyl)methyl)azetidine-3-sulfonamide, potassium salt], the IC50 is 1 to 10 µM.
